Laboratory results reported in US10246456B2, “IRAK4 inhibiting agents” (BIOGEN MA INC., priority 2014, dated 2019).
Where “and” joins values, the source holds several entries; their conditions need not be identical. Equal entries are not always repeated.

These molecules were tested against IRAK4 (Homo sapiens (Human), UniProt Q9NWZ3) (assay: IRAK-4 AlphaScreen biochemical kinase assay). Conditions: 1 nM IRAK4, 1 mM ATP, 3.5 h at RT.
Description: The biochemical assay is in a AlphaScreen format. The kinase reaction is based on the IRAK-4 phosphorylation of a biotin labeled peptide. The phosphopeptide is incubated with anti-phosphothreonine antibody as well as streptavidin- and protein A-coated beads. Binding of the protein-A coated beads to the antibody and the streptavidin beads to the peptide, leads to an energy transfer from one bead to the other, ultimately producing a luminescent/fluorescent signal.

Chain of IRAK4 (Q9NWZ3 whole entry, species assumed): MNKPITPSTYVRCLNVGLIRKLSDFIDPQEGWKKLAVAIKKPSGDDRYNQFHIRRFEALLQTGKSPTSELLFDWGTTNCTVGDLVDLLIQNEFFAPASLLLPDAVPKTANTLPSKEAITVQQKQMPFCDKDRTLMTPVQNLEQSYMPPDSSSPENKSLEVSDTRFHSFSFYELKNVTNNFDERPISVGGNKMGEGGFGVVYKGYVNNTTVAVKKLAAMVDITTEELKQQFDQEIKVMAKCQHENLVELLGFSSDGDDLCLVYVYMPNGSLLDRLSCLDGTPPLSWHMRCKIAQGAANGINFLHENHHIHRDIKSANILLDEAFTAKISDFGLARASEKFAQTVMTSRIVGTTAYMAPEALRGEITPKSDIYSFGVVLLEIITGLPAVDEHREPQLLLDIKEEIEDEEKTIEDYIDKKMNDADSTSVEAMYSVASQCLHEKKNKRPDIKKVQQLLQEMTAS

Compound | IC50
C/C(=N\O)c1cccc(-c2ccc3cnn(-c4ccccn4)c3c2)n1 [Example 230, (E)-1-(6-(1-(pyridin-2-yl)-1H-indazol-6-yl)pyridin-2-yl)ethanone oxime] | > 10 µM
Cc1cccc(-n2ncc3ccc(-c4csc(CO)n4)cc32)n1 [Example 320, (4-(1-(6-methylpyridin-2-yl)-1H-indazol-6-yl)thiazol-2-yl)methanol] | 0.1 to 1 µM
CCC[C@H](N)c1cccc(-c2cc([C@H]3CC[C@@H](C)O3)c3cnn(-c4cccc(CO)n4)c3c2)n1 [Example 478, (6-(6-(6-((S)-1-aminobutyl)pyridin-2-yl)-4-((2R,5R)-5-methyltetrahydrofuran-2-yl)-1H-indazol-1-yl)pyridin-2-yl)methanol] | < 0.1 µM
COCCOc1cc(-c2cccc([C@@H](N)C(F)CCO)n2)cc2c1cnn2-c1cccc(CO)n1 (stereo partly drawn) [Example 430, (4R)-4-amino-3-fluoro-4-(6-(1-(6-(hydroxymethyl)pyridin-2-yl)-4-(2-methoxyethoxy)-1H-indazol-6-yl)pyridin-2-yl)butan-1-ol] | < 0.1 µM
CCC[C@@H](N)c1cncc(-c2ccc3cnn(-c4cccc(CO)n4)c3c2)n1 [Example 408, (R)-(6-(6-(6-(1-aminobutyl)pyrazin-2-yl)-1H-indazol-1-yl)pyridin-2-yl)methanol] | < 0.1 µM
CCC[C@H](N)c1cccc(-c2cc(OC)c3cnn(-c4nccc(C(F)F)n4)c3c2)n1 [Example 572, (S)-1-(6-(1-(4-(difluoromethyl)pyrimidin-2-yl)-4-methoxy-1H-indazol-6-yl)pyridin-2-yl)butan-1-amine] | < 0.1 µM
CC(N)c1cc(-c2ccc3cnn(-c4cccc(C(F)(F)F)n4)c3c2)ccn1 (stereo not shown) [Example 91, 1-(4-(1-(6-(trifluoromethyl)pyridin-2-yl)-1H-indazol-6-yl)pyridin-2-yl)ethanamine] | 0.1 to 1 µM
C/C(=N/O)c1cccc(-c2cc(N(C)C(=O)OC(C)(C)C)c3cnn(-c4cccc(C)n4)c3c2)n1 [Example 226, (Z)-tert-butyl (6-(6-(1-(hydroxyimino)ethyl)pyridin-2-yl)-1-(6-methylpyridin-2-yl)-1H-indazol-4-yl)(methyl)carbamate] | > 10 µM
Cc1cccc(-n2ncc3ccc(-c4ccccn4)cc32)n1 [Example 306, 1-(6-methylpyridin-2-yl)-6-(pyridin-2-yl)-1H-indazole] | 0.1 to 1 µM
COCCOc1cc(-c2cccc([C@H](C)N)n2)cc2c1cnn2-c1cncc(CO)n1 [Example 481, (S)-(6-(6-(6-(1-aminoethyl)pyridin-2-yl)-4-(2-methoxyethoxy)-1H-indazol-1-yl)pyrazin-2-yl)methanol] | < 0.1 µM
Cc1ccc(Cl)c(-n2ncc3ccc(-c4cncc(N)c4)cc32)n1 [Example 38, 5-(1-(3-chloro-6-methylpyridin-2-yl)-1H-indazol-6-yl)pyridin-3-amine] | 1 to 10 µM
COCCOc1cc(-c2cccc([C@@H](N)C(C)F)n2)cc2c1cnn2-c1cccc(CO)n1 (stereo partly drawn) [Example 433, (6-(6-(6-((1R)-1-amino-2-fluoropropyl)pyridin-2-yl)-4-(2-methoxyethoxy)-1H-indazol-1-yl)pyridin-2-yl)methanol] | < 0.1 µM
C/C(=N/O)c1cccc(-c2ccc3cnc(-c4cccc(C(F)(F)F)n4)n3c2)n1 [Example 224, (Z)-1-(6-(3-(6-(trifluoromethyl)pyridin-2-yl)imidazo[1,5-a]pyridin-6-yl)pyridin-2-yl)ethanone oxime] | > 10 µM
CCCC[C@H](N)c1ccnc(-c2ccc3cnn(-c4cccc(CO)n4)c3c2)n1 [Example 580, (S)-(6-(6-(4-(1-aminopentyl)pyrimidin-2-yl)-1H-indazol-1-yl)pyridin-2-yl)methanol] | < 0.1 µM
Cc1ccnc(-n2ncc3ccc(-c4cncc(N)c4)cc32)c1 [Example 39, 5-(1-(4-methylpyridin-2-yl)-1H-indazol-6-yl)pyridin-3-amine] | 0.1 to 1 µM
N#Cc1ccnc(-n2ncc3ccc(-c4cncc(N)c4)cc32)c1 [Example 35, 2-(6-(5-aminopyridin-3-yl)-1H-indazol-1-yl)isonicotinonitrile] | 0.1 to 1 µM
NC1CCc2ccc(-c3ccc4cnn(-c5cccc(C(F)(F)F)n5)c4c3)nc21 (stereo not shown) [Example 62, 2-(1-(6-(trifluoromethyl)pyridin-2-yl)-1H-indazol-6-yl)-6,7-dihydro-5H-cyclopenta[b]pyridin-7-amine] | 1 to 10 µM
C[C@H](N)c1cccc(-c2cc(-n3cccn3)c3cnn(-c4cccc(CO)n4)c3c2)n1 [Example 352, (S)-(6-(6-(6-(1-aminoethyl)pyridin-2-yl)-4-(1H-pyrazol-1-yl)-1H-indazol-1-yl)pyridin-2-yl)methanol] | < 0.1 µM
CCC[C@H](N)c1ccnc(-c2cc(OCCOC)c3cnn(-c4cccc(CO)n4)c3c2)n1 [Example 595, (S)-(6-(6-(4-(1-aminobutyl)pyrimidin-2-yl)-4-(2-methoxyethoxy)-1H-indazol-1-yl)pyridin-2-yl)methanol] | < 0.1 µM
COCCOc1cc(-c2cccc([C@H](C)N)n2)cc2c1cnn2-c1cccc(CO)n1 [Example 586, (S)-(6-(6-(6-(1-aminoethyl)pyridin-2-yl)-4-(2-methoxyethoxy)-1H-indazol-1-yl)pyridin-2-yl)methanol] | < 0.1 µM
Nc1cncc(-c2ccc3cnn(-c4cccc(C5CCC5)n4)c3c2)c1 [Example 28, 5-(1-(6-cyclobutylpyridin-2-yl)-1H-indazol-6-yl)pyridin-3-amine] | 1 to 10 µM
Cc1cccc(-n2ncc3ccc(-c4cccc(C(N)=O)n4)cc32)n1 [Example 248, 6-(1-(6-methylpyridin-2-yl)-1H-indazol-6-yl)picolinamide] | 0.1 to 1 µM
CCC[C@H](N)c1cccc(-c2cc(C(C)OC)c3cnn(-c4cccc(CO)n4)c3c2)n1 (stereo partly drawn) [Example 569, (6-(6-(6-((S)-1-aminobutyl)pyridin-2-yl)-4-(1-methoxyethyl)-1H-indazol-1-yl)pyridin-2-yl)methanol] | < 0.1 µM
CCOc1cc(-c2cccc([C@@H](N)CCCO)n2)cc2c1cnn2-c1cccc(CO)n1 [Example 410, (S)-4-amino-4-(6-(4-ethoxy-1-(6-(hydroxymethyl)pyridin-2-yl)-1H-indazol-6-yl)pyridin-2-yl)butan-1-ol] | < 0.1 µM
Cc1cccc(-n2ncc3c(-c4ncc[nH]4)cc(-c4cccc(C(C)N)n4)cc32)n1 (stereo not shown) [Example 295, 1-(6-(4-(1H-imidazol-2-yl)-1-(6-methylpyridin-2-yl)-1H-indazol-6-yl)pyridin-2-yl)ethanamine] | < 0.1 µM
CCC[C@H](N)c1cccc(-c2cc(C(CO)CCl)c3cnn(-c4cccc(CO)n4)c3c2)n1 (stereo partly drawn) [Example 585, 2-(6-(6-((S)-1-aminobutyl)pyridin-2-yl)-1-(6-(hydroxymethyl)pyridin-2-yl)-1H-indazol-4-yl)-3-chloropropan-1-ol] | 0.1 to 1 µM
CC(N)c1cccc(-c2ccc3cnn(-c4cn(C)cn4)c3c2)n1 (stereo not shown) [Example 138, 1-(6-(1-(1-methyl-1H-imidazol-4-yl)-1H-indazol-6-yl)pyridin-2-yl)ethanamine] | 0.1 to 1 µM and 1 to 10 µM
CC(N)c1cccc(-c2cc(CO)c3cnn(-c4cccc(CO)n4)c3c2)n1 (stereo not shown) [Example 309, (6-(6-(1-aminoethyl)pyridin-2-yl)-1-(6-(hydroxymethyl)pyridin-2-yl)-1H-indazol-4-yl)methanol] | < 0.1 µM
